ChEMBL document CHEMBL3132771, “Machine-assisted synthesis of modulators of the histone reader BRD9 using flow methods of chemistry and frontal affinity chromatography” (Medchemcomm, 2014)
Active and inactive are the calls of the source. No cut-off for these calls is given here.

Key:
[1] = molecular target: T1, Bromodomain-containing protein 9 (Homo sapiens) (UniProt Q9H8M2); test: Binding affinity to human recombinant biotinylated BRD9 by UV spectrophotometric analysis
T1 sequence (whole entry): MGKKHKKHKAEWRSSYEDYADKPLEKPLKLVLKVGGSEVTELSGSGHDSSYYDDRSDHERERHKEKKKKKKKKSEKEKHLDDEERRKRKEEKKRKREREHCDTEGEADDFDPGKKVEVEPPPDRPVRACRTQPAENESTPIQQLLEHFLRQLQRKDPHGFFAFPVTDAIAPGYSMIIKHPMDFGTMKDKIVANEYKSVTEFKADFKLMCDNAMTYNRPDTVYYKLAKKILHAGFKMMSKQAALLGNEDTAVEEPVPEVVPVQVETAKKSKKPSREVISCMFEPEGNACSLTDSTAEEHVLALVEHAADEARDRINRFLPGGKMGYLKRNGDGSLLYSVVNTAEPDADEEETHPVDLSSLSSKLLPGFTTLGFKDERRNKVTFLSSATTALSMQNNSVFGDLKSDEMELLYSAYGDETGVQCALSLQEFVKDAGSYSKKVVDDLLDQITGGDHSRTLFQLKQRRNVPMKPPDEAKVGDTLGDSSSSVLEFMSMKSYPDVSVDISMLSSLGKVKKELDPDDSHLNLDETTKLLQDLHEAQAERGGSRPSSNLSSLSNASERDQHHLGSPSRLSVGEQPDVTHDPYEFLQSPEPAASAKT

[2] = molecular target: Bromodomain-containing protein 4 (Homo sapiens) (UniProt O60885); test: Binding affinity to BRD4 (unknown origin) at 4 uM by thermal shift assay
[3] = molecular target: T1, Bromodomain-containing protein 9 (Homo sapiens); test: Binding affinity to human recombinant biotinylated BRD9 assessed as retention volume at 4 uM by FAC-MS analysis
[4] = molecular target: T1, Bromodomain-containing protein 9 (Homo sapiens); test: Binding affinity to human recombinant biotinylated BRD9 assessed as change in melting temperature at 4 uM by thermal shift assay
Homo sapiens [5] = organism: Homo sapiens; test: Binding affinity to EP300A (unknown origin) at 4 uM by thermal shift assay
[6] = molecular target: T2, Transcription intermediary factor 1-alpha (Homo sapiens) (UniProt O15164); test: Binding affinity to TIF1 (unknown origin) at 4 uM by thermal shift assay
T2 sequence (whole entry): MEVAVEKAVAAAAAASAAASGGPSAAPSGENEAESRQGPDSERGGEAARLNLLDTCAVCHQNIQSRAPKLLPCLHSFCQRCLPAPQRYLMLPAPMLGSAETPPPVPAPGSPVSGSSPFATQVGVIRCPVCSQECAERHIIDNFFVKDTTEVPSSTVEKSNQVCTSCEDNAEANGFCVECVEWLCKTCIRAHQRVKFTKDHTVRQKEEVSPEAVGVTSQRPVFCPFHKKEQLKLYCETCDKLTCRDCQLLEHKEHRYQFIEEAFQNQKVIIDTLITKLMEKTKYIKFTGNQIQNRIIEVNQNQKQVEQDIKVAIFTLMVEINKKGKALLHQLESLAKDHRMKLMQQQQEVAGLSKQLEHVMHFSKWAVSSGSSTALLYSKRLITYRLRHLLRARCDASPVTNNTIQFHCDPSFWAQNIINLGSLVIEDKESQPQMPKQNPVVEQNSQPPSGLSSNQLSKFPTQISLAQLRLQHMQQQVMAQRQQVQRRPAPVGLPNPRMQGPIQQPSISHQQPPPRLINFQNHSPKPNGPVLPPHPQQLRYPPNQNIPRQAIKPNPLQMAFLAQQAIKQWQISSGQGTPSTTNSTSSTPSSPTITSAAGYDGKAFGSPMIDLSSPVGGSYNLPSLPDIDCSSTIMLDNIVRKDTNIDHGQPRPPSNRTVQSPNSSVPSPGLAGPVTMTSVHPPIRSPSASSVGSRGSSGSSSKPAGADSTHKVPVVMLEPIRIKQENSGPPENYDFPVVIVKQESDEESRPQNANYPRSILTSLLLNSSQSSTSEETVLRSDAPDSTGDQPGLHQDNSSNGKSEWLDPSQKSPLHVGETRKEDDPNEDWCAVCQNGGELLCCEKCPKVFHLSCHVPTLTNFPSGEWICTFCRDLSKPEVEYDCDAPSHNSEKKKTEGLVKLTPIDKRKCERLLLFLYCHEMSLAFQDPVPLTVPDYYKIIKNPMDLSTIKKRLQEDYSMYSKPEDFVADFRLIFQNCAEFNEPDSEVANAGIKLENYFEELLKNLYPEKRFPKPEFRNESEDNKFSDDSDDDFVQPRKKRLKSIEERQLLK

Peregrin (Homo sapiens) = molecular target: T3, Peregrin (Homo sapiens) (UniProt P55201); test: Binding affinity to BRPF1 (unknown origin) at 4 uM by thermal shift assay
T3 sequence (whole entry): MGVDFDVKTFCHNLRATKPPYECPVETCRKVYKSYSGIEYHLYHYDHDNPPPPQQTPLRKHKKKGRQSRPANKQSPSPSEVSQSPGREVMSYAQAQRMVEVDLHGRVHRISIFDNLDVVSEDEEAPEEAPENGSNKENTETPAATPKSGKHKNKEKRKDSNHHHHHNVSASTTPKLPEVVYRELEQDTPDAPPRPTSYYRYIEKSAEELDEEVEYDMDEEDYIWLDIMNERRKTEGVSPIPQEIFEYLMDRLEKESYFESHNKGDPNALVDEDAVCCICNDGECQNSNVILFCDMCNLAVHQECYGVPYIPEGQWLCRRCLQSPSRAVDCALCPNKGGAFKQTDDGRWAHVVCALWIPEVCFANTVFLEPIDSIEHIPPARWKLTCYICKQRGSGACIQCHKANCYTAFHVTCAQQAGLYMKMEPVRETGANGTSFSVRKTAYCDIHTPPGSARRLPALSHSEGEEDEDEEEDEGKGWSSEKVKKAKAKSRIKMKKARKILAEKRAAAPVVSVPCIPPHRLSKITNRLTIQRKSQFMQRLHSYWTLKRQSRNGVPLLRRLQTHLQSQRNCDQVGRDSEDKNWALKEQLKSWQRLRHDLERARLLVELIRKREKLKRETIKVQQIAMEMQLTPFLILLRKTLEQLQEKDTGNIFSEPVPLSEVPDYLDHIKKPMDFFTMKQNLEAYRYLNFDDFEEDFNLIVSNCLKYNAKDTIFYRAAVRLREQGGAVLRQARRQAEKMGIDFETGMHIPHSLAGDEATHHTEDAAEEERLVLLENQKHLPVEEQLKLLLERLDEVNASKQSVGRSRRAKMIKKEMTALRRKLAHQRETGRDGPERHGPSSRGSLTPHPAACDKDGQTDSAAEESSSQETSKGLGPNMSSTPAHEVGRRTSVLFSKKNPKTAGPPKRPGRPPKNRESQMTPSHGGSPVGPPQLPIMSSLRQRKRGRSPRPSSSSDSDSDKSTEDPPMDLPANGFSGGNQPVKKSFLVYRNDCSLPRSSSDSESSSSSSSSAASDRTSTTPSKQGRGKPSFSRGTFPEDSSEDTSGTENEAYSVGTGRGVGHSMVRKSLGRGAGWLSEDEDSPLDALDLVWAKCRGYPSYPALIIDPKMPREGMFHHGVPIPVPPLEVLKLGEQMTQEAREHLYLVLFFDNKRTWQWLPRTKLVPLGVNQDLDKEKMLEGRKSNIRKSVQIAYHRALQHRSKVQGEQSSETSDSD

[7] = molecular target: CREB-binding protein (Homo sapiens) (UniProt Q92793); test: Binding affinity to CREBBP (unknown origin) at 4 uM by thermal shift assay
[8] = molecular target: T4, Bromodomain and PHD finger-containing protein 3 (Homo sapiens) (UniProt Q9ULD4); test: Binding affinity to BRPF3 (unknown origin) at 4 uM by thermal shift assay
T4 sequence (whole entry): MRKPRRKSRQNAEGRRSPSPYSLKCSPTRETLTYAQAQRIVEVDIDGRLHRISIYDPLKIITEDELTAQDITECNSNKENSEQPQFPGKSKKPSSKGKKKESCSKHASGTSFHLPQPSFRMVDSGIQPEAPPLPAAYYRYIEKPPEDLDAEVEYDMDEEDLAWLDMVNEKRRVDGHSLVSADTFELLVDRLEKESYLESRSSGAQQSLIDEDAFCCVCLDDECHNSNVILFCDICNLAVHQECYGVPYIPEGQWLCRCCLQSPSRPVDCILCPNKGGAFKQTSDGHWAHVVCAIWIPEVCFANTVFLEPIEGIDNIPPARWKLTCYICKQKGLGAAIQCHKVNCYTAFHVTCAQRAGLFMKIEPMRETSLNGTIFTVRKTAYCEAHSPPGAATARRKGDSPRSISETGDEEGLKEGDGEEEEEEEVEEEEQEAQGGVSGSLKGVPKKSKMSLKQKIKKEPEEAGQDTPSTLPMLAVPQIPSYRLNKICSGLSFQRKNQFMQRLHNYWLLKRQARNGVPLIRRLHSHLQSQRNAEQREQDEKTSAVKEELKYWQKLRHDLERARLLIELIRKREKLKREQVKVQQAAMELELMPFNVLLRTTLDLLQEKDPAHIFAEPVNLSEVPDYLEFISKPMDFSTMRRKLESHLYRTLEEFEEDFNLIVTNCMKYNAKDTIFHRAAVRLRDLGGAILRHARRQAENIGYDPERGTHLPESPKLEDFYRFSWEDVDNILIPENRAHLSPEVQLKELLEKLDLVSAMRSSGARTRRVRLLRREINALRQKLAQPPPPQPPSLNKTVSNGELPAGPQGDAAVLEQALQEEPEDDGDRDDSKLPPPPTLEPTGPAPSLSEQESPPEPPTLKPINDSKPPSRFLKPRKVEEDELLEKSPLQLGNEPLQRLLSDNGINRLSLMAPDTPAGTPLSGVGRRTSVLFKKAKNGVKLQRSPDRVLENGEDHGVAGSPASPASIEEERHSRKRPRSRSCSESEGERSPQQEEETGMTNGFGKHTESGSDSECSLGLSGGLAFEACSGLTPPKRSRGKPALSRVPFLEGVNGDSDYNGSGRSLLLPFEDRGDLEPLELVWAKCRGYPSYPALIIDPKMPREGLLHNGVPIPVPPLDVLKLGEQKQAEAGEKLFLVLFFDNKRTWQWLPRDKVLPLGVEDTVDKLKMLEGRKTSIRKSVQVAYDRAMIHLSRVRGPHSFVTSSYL

[9] = molecular target: Chromatin remodeling regulator CECR2 (Homo sapiens) (UniProt Q9BXF3); test: Binding affinity to CECR2 (unknown origin) at 4 uM by thermal shift assay
Homo sapiens [10] = organism: Homo sapiens; test: Binding affinity to BRD1A (unknown origin) at 4 uM by thermal shift assay
[11] = molecular target: T5, Bromodomain-containing protein 9 (Homo sapiens, UniProt Q9H8M2); test: Binding affinity to human recombinant biotinylated BRD9 compound treated in ammonium acetate buffer by FAC-MS analysis
T5 sequence (Q9H8M2 whole entry): T1 sequence (whole entry)

[12] = molecular target: T5, Bromodomain-containing protein 9; test: Binding affinity to human recombinant biotinylated BRD9 compound treated in PBS buffer by FAC-MS analysis
[13] = molecular target: T1, Bromodomain-containing protein 9 (Homo sapiens); test: Binding affinity to human recombinant biotinylated BRD9 at 4 uM after 120 mins by FAC-MS analysis
[14] = molecular target: T1, Bromodomain-containing protein 9 (Homo sapiens); test: Binding affinity to human recombinant biotinylated BRD9 assessed as retention volume at 50 uM by FAC-MS analysis

Sequence of CREB-binding protein (Homo sapiens) (Q92793 2-2442 limits assumed): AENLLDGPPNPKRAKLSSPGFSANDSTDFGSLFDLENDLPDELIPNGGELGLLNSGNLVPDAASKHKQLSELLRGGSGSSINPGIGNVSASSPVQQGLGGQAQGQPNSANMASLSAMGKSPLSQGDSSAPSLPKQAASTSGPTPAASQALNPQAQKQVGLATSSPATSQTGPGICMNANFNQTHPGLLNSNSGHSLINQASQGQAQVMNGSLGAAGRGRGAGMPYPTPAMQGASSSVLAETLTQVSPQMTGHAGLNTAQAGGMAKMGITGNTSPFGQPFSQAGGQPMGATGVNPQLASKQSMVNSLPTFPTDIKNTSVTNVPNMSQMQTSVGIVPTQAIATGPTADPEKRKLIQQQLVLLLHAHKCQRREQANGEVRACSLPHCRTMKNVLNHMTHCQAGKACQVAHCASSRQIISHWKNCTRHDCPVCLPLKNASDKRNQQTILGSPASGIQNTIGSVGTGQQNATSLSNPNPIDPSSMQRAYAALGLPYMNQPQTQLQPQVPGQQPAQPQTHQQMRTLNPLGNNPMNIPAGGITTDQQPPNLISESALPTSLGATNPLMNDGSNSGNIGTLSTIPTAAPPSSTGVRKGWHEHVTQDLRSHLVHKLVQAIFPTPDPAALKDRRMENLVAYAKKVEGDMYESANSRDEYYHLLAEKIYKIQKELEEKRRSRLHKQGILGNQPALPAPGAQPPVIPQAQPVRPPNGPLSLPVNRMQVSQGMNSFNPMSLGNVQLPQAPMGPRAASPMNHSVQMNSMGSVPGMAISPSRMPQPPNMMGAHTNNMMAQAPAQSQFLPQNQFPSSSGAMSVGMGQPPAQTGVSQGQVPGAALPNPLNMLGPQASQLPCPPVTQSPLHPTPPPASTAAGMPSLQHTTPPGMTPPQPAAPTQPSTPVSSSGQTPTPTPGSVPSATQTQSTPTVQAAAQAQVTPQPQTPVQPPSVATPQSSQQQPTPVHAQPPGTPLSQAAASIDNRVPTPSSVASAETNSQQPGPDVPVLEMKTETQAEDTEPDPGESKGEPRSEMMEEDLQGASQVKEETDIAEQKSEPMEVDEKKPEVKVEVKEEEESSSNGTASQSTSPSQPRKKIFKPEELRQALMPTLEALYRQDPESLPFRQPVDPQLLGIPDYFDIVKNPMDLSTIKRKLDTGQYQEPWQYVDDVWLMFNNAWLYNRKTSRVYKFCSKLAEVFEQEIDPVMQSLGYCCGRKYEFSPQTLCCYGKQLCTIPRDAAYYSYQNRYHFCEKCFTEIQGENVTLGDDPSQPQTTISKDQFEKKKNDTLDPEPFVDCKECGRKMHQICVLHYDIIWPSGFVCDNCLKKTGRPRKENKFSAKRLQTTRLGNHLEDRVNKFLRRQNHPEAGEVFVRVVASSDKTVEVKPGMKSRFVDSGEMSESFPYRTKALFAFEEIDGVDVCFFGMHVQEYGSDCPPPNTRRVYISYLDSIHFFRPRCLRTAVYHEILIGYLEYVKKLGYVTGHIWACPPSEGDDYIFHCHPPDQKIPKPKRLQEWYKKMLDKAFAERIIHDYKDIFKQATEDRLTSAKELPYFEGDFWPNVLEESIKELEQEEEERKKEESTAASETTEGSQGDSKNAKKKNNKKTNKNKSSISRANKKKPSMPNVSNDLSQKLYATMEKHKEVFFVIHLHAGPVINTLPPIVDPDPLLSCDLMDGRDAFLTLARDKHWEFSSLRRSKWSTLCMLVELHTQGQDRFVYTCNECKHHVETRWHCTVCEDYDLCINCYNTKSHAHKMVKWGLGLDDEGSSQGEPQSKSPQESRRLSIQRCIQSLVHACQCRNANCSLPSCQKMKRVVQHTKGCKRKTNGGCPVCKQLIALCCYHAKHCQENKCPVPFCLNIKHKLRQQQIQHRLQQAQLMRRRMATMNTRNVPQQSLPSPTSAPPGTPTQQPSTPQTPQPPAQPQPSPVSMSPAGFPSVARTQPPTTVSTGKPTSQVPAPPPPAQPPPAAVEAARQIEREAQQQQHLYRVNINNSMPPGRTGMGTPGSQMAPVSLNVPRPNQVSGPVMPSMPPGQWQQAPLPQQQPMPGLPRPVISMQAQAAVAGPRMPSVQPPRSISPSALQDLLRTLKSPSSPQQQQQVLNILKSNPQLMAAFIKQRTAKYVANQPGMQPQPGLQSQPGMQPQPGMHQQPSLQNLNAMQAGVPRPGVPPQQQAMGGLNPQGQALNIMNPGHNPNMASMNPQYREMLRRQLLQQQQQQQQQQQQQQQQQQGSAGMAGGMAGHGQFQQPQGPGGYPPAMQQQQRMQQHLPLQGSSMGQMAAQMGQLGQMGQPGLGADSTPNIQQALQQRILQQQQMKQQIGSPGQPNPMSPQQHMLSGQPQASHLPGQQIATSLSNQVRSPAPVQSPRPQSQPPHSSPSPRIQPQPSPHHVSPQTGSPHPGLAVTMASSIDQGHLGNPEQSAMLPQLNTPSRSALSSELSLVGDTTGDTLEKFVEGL
Sequence of Chromatin remodeling regulator CECR2 (Homo sapiens) (Q9BXF3 whole entry, looked up): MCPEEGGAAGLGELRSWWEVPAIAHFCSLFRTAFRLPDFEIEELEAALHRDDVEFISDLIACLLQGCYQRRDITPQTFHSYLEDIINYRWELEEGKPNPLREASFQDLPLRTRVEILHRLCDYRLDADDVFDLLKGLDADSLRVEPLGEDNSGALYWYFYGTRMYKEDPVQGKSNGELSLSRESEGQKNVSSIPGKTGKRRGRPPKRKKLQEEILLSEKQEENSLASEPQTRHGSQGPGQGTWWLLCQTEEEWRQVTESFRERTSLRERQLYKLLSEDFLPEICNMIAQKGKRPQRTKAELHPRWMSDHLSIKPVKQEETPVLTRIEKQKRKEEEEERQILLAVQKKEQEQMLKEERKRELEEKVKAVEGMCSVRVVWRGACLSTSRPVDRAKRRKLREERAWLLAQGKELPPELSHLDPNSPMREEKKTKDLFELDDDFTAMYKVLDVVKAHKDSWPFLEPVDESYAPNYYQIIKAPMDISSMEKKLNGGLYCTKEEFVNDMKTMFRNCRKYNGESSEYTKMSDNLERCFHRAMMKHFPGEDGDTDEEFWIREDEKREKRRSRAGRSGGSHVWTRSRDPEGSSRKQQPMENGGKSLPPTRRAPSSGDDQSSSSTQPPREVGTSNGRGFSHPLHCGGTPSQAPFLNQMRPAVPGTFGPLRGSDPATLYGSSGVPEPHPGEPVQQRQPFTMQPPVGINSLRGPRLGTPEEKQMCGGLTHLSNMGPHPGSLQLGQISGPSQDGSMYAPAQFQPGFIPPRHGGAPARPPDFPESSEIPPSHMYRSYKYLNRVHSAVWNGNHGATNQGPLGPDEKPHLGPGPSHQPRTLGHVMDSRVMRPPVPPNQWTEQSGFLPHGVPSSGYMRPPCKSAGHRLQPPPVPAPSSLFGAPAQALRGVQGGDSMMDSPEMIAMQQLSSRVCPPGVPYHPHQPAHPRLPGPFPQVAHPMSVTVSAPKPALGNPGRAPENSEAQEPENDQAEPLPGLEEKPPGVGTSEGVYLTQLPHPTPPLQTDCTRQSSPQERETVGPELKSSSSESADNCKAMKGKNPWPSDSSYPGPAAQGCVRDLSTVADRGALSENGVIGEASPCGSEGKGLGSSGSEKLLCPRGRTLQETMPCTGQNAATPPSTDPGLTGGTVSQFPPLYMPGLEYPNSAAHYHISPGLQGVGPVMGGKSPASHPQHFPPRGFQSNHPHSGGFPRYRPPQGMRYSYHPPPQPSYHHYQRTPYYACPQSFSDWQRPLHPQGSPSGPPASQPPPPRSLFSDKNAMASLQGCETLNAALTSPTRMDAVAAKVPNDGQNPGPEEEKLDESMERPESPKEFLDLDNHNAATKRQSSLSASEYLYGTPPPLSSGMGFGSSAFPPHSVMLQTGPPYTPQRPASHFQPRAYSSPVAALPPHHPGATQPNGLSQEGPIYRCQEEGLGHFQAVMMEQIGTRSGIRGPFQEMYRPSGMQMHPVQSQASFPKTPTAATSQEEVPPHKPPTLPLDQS

Row | Activity [1] | Activity [2] | Activity [3] [µL] | ΔTm [4] [°C] | Activity (Homo sapiens [5]) | Activity [6] | Activity (Peregrin (Homo sapiens)) | Activity [7] | Activity [8] | Activity [9] | Activity (Homo sapiens [10]) | Compound | also measured
1 | Active | – | – | – | – | – | – | – | – | – | – | Cc1ccc(-c2cc(N)c3nnc(C)n3n2)cc1NS(=O)(=O)c1cccc(Cl)c1 | –
2 | Active | – | – | – | – | – | – | – | – | – | – | CCOC(=O)N(c1cc(-c2cc(N)c3nnc(C)n3n2)ccc1C)S(=O)(=O)c1ccccc1Cl | –
3 | Active | Active | 1170 | 4.3 | Active | – | – | – | – | – | – | Cc1ccc(-c2cc(N)c3nnc(C)n3n2)cc1NS(=O)(=O)c1ccc(Cl)c(Cl)c1 | –
4 | Active | inactive | 947 | 2.7 | inactive | inactive | inactive | inactive | inactive | inactive | inactive | CCOC(=O)N(c1cc(-c2cc(N)c3nnc(C)n3n2)ccc1C)S(=O)(=O)c1ccc(Cl)cc1 | –
5 | Active | Active | 784 | 2.4 | – | – | – | – | – | – | – | Cc1ccc(-c2cc(N)c3nnc(C)n3n2)cc1NS(=O)(=O)c1ccccc1Cl | –
6 | – | – | > 3600 | 8.8 | – | – | – | – | – | – | – | CCOC(=O)Nc1cc(-c2ccc(C)c(NS(C)(=O)=O)c2)nn2c(C)nnc12 | Activity [13]: inactive; Activity [14]: 324 µL

Second part, the compound before the results:

Row | Compound | Activity [1] | Activity [2] | Activity [3] [µL] | ΔTm [4] [°C] | Activity (Homo sapiens [5]) | Activity [6] | Activity (Peregrin (Homo sapiens)) | Activity [7] | Activity [8] | Activity [9] | Activity (Homo sapiens [10]) | also measured
7 | Cc1nnc2c(N)cc(Cl)nn12 | Active | – | – | – | – | – | – | – | – | – | – | –
8 | Cc1nnc2c(NC(=O)OC(C)(C)C)cc(-c3ccccc3)nn12 | – | – | – | – | – | – | – | – | – | – | – | Kd [11]: 8.35 µM; Kd [12]: 8.35 µM
9 | FC(F)(F)c1nnc2ccc(-c3ccccc3)nn12 | Active | inactive | 212 | -0.6 | inactive | inactive | inactive | inactive | inactive | inactive | inactive | –
10 | COc1ccc(-c2ccc3nnc(C(F)(F)F)n3n2)cc1 | Active | inactive | 270 | 0.6 | inactive | inactive | inactive | inactive | inactive | inactive | inactive | –
